Experimental data reported in US7022737B2, “Manipulating nitrosative stress to kill pathologic microbes, pathologic helminths and pathologically proliferating cells or to upregulate nitrosative stress defenses” (Duke University, priority 1996, dated 2006).

Columns and labels:
[1] = system: athlete's foot; test: Patients with athlete's foot; type: in vivo; conditions: 50 mM added to miconazole cream
Protocol: A runner develops athlete's foot. […] They substitute a cream containing the same ingredients, with the exception that S-nitroso-N-acetyl cysteine has been added so as to be present at a concentration of 50 mM.
A marathon runner develops athlete's foot. They treat themself with a topical mixture of inorganic nitrite, acetic acid and thiol in a cream base.

[2] = target: T1, E. coli gamma-glutamylcysteine synthetase (Escherichia coli, UniProt P0A6W9); test: Inactivation of E. coli gamma-GCS by homocysteine sulfoximines (preincubation with ATP, residual activity by coupled PK/LDH assay); type: biochemical; conditions: on an active isomer basis
T1 construct: made in house
Protocol: E. coli gamma-GCS was isolated from bacterial cells engineered to overexpress the enzyme; the isolation procedure was similar to that used previously to isolate mammalian gamma-GCS. […] The enzyme was assayed in reaction mixtures (final volume=1.0 ml) containing: 150 mM Tris·HCl, pH 8.2, 100 mM KCl, 25 mM MgCl2, 7.5 mM ATP, 7.5 mM phosphoenolpyruvate, 0.3 mM EDTA, 10 mM L-glutamate, 10 mM L-α-aminobutyrate (an L-cysteine analog), 0.3 mM NADH, 5 IU pyruvate kinase, and 5 IU lactate dehydrogenase. Reaction was initiated by adding gamma-GCS; in control studies, L-α-aminobutyrate was omitted from the reaction mixture. In this assay, pyruvate kinase (PK) and lactate dehydrogenase (LDH) are added in excess to detect formation of ADP, one of the products of the gamma-GCS reaction. The relevant enzyme reactions are shown as equations 1–3 below. Oxidation of NADH to NAD^+ is followed and quantitated spectrophotometrically at 340 nm (1 μmol oxidation gives ΔOD=−6.2) and is directly proportional to product formation by gamma-GCS. [drawing 2]
Inhibition by homocysteine sulfoximines was carried out by preincubating the E. coli gamma-GCS with potential inhibitors in the presence of ATP and then removing aliquots of that mixture at specific times and assaying for residual activity using the assay procedure described above. The preincubation reaction mixtures contained (final volume=400 μl) the following: 210 mM Tris·HCl, pH 8.2, 142 mM KCl, 36 mM MgCl2, 10 mM ATP, 0.4 mM EDTA, various amounts of sulfoximine, and gamma-GCS. At intervals, 50 μl aliquots were removed and added to 1.0 ml assay reaction mixtures to determine residual activity spectrophotometrically. Results of a study indicate that E. coli gamma-GCS loses about 27% of its activity over 30 minutes in the absence of added inhibitors; this loss of activity represents an inherent instability in the enzyme when incubated under these reaction conditions in this particular experiment. […]

[3] = target: T2, rat kidney gamma-GCS (Rattus norvegicus, UniProt P19468); test: Inhibition of mammalian gamma-GCS, protocol similar to E. coli enzyme; type: biochemical
T2 construct: highly purified rat kidney gamma-GCS; from tissue; host or cells: rat kidney

[4] = system: E. coli; test: Patient with E. coli caused gastroenteritis with bloody diarrhea; type: in vivo
Protocol: A patient with E. coli caused gastroenteritis with bloody diarrhea is administered α-ethyl-L-buthionine-S-sulfoximine (hereinafter α-ethyl BSO) orally at a dose of 10 mmol/kg body weight four times a day.
A patient with E. coli caused gastroenteritis and bloody diarrhea is administered α-ethyl BSO orally at a dose of 10 mmol/kg body weight four times a day. In addition, the patient is given chloramphenicol orally at a dose of 12.5 mg/kg four times a day. Bloody diarrhea resolved in 36 hours.

[5] = system: E. coli; test: Patients with E. coli septicemia; type: in vivo
Protocol: A person with fever, mild hypotension, and moderate hematuria has blood and urine cultures that are positive for E. coli. They are given a diagnosis of E. coli septicemia and urinary tract infection. […]
A person with E. coli sepsis presents feeling nauseated and gravely ill. However, their blood pressure is stable. They receive a standard regimen of IV antibiotics, including ampicillin and gentamicin as well as the siderophore ferrioxamine B at a dose of 10 mg/kg.
A person with E. coli sepsis presents with a blood pressure of 80/50 mm Hg. Broad spectrum antibiotics are initiated including ampicillin and gentamicin. […] The patient then receives an intravenous dose of nitrosated chloramphenicol, 12.5 mg four times/day IV together with methylene blue IV at a dose of 5 mg/kg as well as fluid support.

[6] = system: Chlamydia trachomatous; test: Patients with Chlamydia cervicitis and vaginitis; type: in vivo; conditions: α-ethyl BSO 4 mmol/kg and nitrate ester of chloramphenicol 12.5 mg/kg, each four times a day p.o.
From the text: A person with a history of multiple sexual partners and recurrent urinary tract infections presents with cervicitis and vaginitis of four days duration. The patient complains of pain and vaginal discharge.

[7] = system: rickettsia; type: in vivo; conditions: 4 mmol/kg four times a day p.o. with chloramphenicol 12.5 mg four times a day p.o.
[8] = system: mycoplasma; conditions: 250 mg three times a day
[9] = system: E. coli; conditions: chloramphenicol alone; cited from earlier work
[10] = system: oral thrush; test: Patients with oral thrush; type: in vivo; conditions: 2 cc of 50 mM, swish and spit, three times/day
Protocol: An immunocompromised person who is status-post recent chemotherapy develops oral thrush.
A person with leukemia develops oral thrush and is given 2 cc of 50 mM S-nitrosoglutathione, swish and spit, three times/day.
An immunocompromised person with HIV and a low CD4 count develops oral thrush. They are given 5 cc of a solution of 10 mM nitrate.

[11] = system: mixed flora and gram-negativerods; test: Diabetic patient with infected skin ulcer; type: in vivo; conditions: topical cream with S-nitrosoglutathione, oxidized glutathione and dinitrophenacyl glutathione
From the text: A patient with diabetes develops a skin ulcer on the lower aspect of their left leg. Cultures grow mixed flora and gram-negativerods. A topical cream is applied that contains S-nitrosoglutathione, oxidized glutathione and the glutathione S-conjugate dinitrophenacyl glutathione.

[12] = system: trypanosomes; test: Patient with trypanosome infection; type: in vivo; conditions: L-buthionine-S-sulfoximine 3 mmol/kg p.o. every 4 hours and S-nitrosoglutathione iv 10 mg/kg every 8 hours, one week
Protocol: A person presents with high fever, moderate lymphadenopathy and reports that they have lost 40 pounds in the last month, two months after returning from a safari in sub-Saharan Africa. On questioning, the patient reports having developed during the safari an ulcer on their forearm two days following a bite by a fly. […] The patient is hospitalized and given L-buthionine-S-sulfoximine at a dose of 3 mmol/kg p.o. every 4 hours for one week. In addition, the patient receives S-nitrosoglutathione iv at a dose of 10 mg/kg every 8 hours for one week.

[13] = system: metastatic malignant melanoma; test: Patient with metastatic malignant melanoma; type: in vivo; conditions: L-buthionine-S-sulfoximine 2 mmol/kg p.o. every 4 hours and hydroxyurea 10 mg/kg p.o., one week
Protocol: A person […] and a history of surgery five years previously to remove malignant melanotic nevi from their upper back and chest is found to have blood in their stool on routine physical examination. […] The patient is administered L-buthionine-S-sulfoximine (2 mmol/kg) p.o. every 4 hours for one week and is given 10 mg/kg of hydroxyurea p.o. 1 hour after every third dose of L-buthionine-S-sulfoximine. […] The patient shown no further evidence of metastases during a six month follow-up.

[14] = system: Streptomycetes; test: Immunocompromised patient with Streptomycetes lesion; type: in vivo; conditions: 4 mmol/kg three times a day p.o. with trimethoprim and sulfamethoxazole, one month
Protocol: An immunocompromised patient recovering from bone marrow transplantation develops a lump in their cheek at a place previously scratched by a garden implement. A culture obtained from the lump is positive for Streptomycetes. The patient is given DL-α-amino-δ-butylthio valeric acid-SR-sulfoximine at a dose of 4 mmol/kg body weight three times a day p.o. The patient is also given trimethoprim (160 mg twice a day) and sulfamethoxazole (800 mg twice a day) for one month.

[15] = system: Actinomycetes israelii; test: Patient infected with Actinomycetes israelii; type: in vivo; conditions: 1 mg/kg four times per day i.v.
From the text: A patient infected with Actinomycetes israelii has a low-grade fever, non-productive cough, and occasional hemoptysis.

[16] = system: S. typhimurium; conditions: J. Gen. Microbiol. 72, 291–301 (1972); cited from earlier work

T2 sequence (P19468 whole entry): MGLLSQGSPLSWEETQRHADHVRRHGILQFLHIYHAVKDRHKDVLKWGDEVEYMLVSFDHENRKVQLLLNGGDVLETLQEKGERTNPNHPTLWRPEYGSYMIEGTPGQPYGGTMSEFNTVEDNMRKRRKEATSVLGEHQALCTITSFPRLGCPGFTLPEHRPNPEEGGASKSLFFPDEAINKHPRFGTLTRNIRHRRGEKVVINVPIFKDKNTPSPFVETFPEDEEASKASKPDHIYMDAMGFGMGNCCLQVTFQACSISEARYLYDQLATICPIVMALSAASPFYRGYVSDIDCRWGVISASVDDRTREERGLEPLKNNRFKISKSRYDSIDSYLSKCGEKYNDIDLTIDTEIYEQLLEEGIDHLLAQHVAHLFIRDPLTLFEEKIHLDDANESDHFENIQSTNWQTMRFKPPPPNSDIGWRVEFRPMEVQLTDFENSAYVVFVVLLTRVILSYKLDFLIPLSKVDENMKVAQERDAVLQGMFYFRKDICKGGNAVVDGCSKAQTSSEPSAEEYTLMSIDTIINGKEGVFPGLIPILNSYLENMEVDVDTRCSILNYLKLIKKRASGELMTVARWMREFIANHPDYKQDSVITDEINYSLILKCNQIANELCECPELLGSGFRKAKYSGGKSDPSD
T2 sequence (P48508 whole entry partner): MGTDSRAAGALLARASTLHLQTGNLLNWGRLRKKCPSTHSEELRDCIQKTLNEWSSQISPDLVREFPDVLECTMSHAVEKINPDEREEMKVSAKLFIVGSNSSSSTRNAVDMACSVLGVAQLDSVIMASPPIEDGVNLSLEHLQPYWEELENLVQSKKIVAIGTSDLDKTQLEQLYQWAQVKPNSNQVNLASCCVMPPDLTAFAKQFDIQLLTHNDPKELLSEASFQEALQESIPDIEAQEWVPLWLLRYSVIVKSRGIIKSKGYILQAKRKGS
T1 sequence (P0A6W9 whole entry): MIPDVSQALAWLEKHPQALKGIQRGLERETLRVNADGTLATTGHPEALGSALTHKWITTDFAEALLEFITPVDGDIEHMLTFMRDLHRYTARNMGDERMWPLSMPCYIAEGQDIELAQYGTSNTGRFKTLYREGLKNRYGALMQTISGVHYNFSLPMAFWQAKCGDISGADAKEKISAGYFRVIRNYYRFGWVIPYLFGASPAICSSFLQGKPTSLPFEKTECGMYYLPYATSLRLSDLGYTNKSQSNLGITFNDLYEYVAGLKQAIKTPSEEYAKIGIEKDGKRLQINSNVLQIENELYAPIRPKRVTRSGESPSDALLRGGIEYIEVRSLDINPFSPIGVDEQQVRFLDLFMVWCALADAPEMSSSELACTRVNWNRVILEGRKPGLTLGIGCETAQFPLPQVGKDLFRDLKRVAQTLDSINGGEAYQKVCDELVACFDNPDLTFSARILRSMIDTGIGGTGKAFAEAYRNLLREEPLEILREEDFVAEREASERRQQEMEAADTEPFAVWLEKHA

In the case of `CC(=O)N[C@@H](CSN=O)C(=O)O` [S-nitroso-N-acetyl cysteine], the clinical outcome [1] is reported as “symptoms improve over seven days”.
For `CCCCS(=N)(=O)CCC(N)(CC)C(=O)O` [α-ethyl-L-buthionine-S-sulfoximine], the “effectiveness as inhibitor relative to L-S-BSO” value [2] was “about 20%”, the “inhibitory activity relative to L-buthionine-S-sulfoximine” value ([3]; expressed on the basis of the active isomer) was “about 0.1%” and the “time to resolution of bloody diarrhea” value ([4]; 10 mmol/kg orally four times a day plus chloramphenicol 12.5 mg/kg orally four times a day) was 36 h. For the same compound, the clinical outcome ([4]; orally 10 mmol/kg four times a day) was “Bloody diarrhea resolved over four days”, the clinical outcome ([5]; resistant to conventional antibiotics, 4 mmol/kg four times a day p.o. plus hyperbaric 100% oxygen, ampicillin and gentamicin continued) was “symptoms resolve within four days” and the clinical outcome ([5]; septicemia and urinary tract infection, α-ethyl BSO 4 mmol/kg four times a day p.o., S-nitroso-gamma-methyl-L-homocysteine 50 μg/kg i.v., gentamicin) was “symptoms resolve and blood and urine cultures are negative for E. coli after two weeks”. For the same compound, the “time to resolution of infection” value [6] was 10 days and the “time until patient becomes well” value [7] was 10 days.
For `CC[C@H]1OC(=O)[C@H](C)[C@@H](O[C@H]2C[C@@](C)(OC)[C@@H](O)[C@H](C)O2)[C@H](C)[C@@H](O[C@@H]2O[C@H](C)C[C@H](N(C)C)[C@H]2O)[C@](C)(O)C[C@@H](C)C(=O)[C@H](C)[C@@H](O)[C@]1(C)O` [erythromycin], the clinical outcome [8] was “symptoms linger”.
For `O=C(N[C@H](CO)[C@H](O)c1ccc([N+](=O)[O-])cc1)C(Cl)Cl` [Chloramphenicol, chloramphenicol], the “usual time to effect” value [9] is given as “normally has effect in three days”.
For `N[C@@H](CCC(=O)N[C@@H](CSN=O)C(=O)NCC(=O)O)C(=O)O` [S-nitrosoglutathione], the clinical outcome [10] was “much improved in three days”, the clinical outcome [11] was “culture of the ulcer becomes sterile over three days” and the clinical outcome [12] was “blood smear is free of trypanosomes”.
With `NC(=O)NO` [hydroxyurea] the “reduction in size of metastatic tumor” value [13] was 30%.
In the case of `CCCCS(=N)(=O)CCCC(N)C(=O)O` (racemic) [DL-α-amino-δ-butylthio valeric acid-SR-sulfoximine], the clinical outcome [14] is reported as “lesion in patient's cheek resolves completely”.
For `CCCCS(=N)(=O)CCC(N)(CC)C(=O)O` (racemic) [α-ethyl-DL-buthionine-SR-sulfoximine, α-Ethyl-D,L-buthionine-R,S-sulfoximine], the “effectiveness as inhibitor relative to L-buthionine-S-sulfoximine” value ([3]; highly purified rat kidney enzyme, DL,SR mixture) was 0.025% and the melting point was 203 to 205 °C.
With serinyl-S-nitrosocysteinyl-gluatamine the clinical outcome [15] was “symptoms resolve over three weeks”.
For `c1nc[nH]n1` [1,2,4-trazole], the bacterial growth [16] is given as “inhibiting the growth of S. typhimurium”.
